This note sets out measurements from US7276508B2, “Indole derivatives useful for the treatment of CNS disorders” (H. Lundbeck A/S, priority 2000, dated 2007).

Structures can show the parent of a compound that is named as a salt.

Tested on in the first series: not given
Assay: not given
Conditions: not given
As usually defined, the melting point is the temperature of the solid-liquid transition. For the compound `O=C1CCc2ccccc2N1CCCCN1CCC(c2c[nH]c3ccc(F)cc23)CC1` (as salt: hydrochloride) [Compound 4, 5-Fluoro-3-{1-[4-(2-oxo-3,4-dihydro-2H-quinolin-1-yl)butan-1-yl]piperidin-4-yl}-1H-indole], the melting point is 212 to 213 °C.

With `O=C1CCc2ccccc2N1CCCN1CC=C(c2c[nH]c3ccc(F)cc23)CC1` (as salt: oxalate) [Compound 3a, 5-Fluoro-3-{1-[3-(2-oxo-3,4-dihydro-2H-quinolin-1-yl)propan-1-yl]-3,6-dihydro-2H-pyridin-4-yl}-1H-indole], the melting point lay in the range of 220 to 223 °C.

For a further series, the target named is T1, human cloned dopamine D4.2 receptors (Homo sapiens, UniProt P21917, DEL265-296).
T1 construct: expressed in transfected cells; host or cells: CHO cells (membranes)
T1 sequence (P21917 with tags, fused parts or gaps DEL265-296): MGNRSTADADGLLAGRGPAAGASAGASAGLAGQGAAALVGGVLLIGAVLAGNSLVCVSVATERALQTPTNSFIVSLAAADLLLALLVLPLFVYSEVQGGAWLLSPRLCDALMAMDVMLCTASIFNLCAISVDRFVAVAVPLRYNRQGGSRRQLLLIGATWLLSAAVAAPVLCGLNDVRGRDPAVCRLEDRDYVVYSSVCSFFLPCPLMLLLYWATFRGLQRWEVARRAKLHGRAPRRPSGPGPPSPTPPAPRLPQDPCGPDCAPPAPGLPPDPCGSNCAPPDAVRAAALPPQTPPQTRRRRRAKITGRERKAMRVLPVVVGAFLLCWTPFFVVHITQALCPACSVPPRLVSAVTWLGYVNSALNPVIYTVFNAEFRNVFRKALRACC
Nature of the series: Inhibition of the binding of [3H]YM-09151-2 to human dopamine D4 receptors. The settings on record: [3H]YM-09151-2 0.06 nM, membranes of CHO cells; read-out: D4-bind. IC50. The procedure: Inhibition of the Binding of [^3H]YM-09151-2 to Human Dopamine D4 Receptors
By this method, the inhibition by drugs of the binding of [^3H]YM-09151-2 (0.06 nM) to membranes of human cloned dopamine D4.2 receptors expressed in CHO-cells is determined in vitro. Method modified from NEN Life Science Products, Inc., technical data certificate PC2533-10/96.
As a reminder, the IC50 is the concentration that gives 50% inhibition. Regarding `O=C1CCc2ccccc2N1CCCN1CCC(c2c[nH]c3ccc(F)cc23)CC1` [Compound 2a, 5-Fluoro-3-{1-[3-(2-oxo-3,4-dihydro-2H-quinolin-1-yl)propan-1-yl]piperidin-4-yl}-1H-indole], the IC50 was 0.58 nM.

Regarding `O=C1CCc2ccccc2N1CCCCCN1CCC(c2c[nH]c3ccc(F)cc23)CC1` [Compound 2b, 5-Fluoro-3-{1-[5-(2-oxo-3,4-dihydro-2H-quinolin-1-yl)pentan-1-yl]piperidin-4-yl}-1H-indole], the IC50 was 12 nM.

Take `O=C1CCc2ccccc2N1CCCN1CCC(c2c[nH]c3ccc(Cl)cc23)CC1` [Compound 2c, 5-Chloro-3-{1-[3-(2-oxo-3,4-dihydro-2H-quinolin-1-yl)propan-1-yl]piperidin-4-yl}-1H-indole]: the IC50 came to 0.69 nM.

`O=C1CCc2ccccc2N1CCCCN1CCC(c2c[nH]c3ccc(Cl)cc23)CC1` [Compound 2d, 5-Chloro-3-{1-[4-(2-oxo-3,4-dihydro-2H-quinolin-1-yl)butan-1-yl]piperidin-4-yl}-1H-indole]: the IC50 amounted to 8 nM.

Regarding `O=C1CCc2ccccc2N1CCCCCN1CCC(c2c[nH]c3ccc(Cl)cc23)CC1` [Compound 2e, 5-Chloro-3-{1-[5-(2-oxo-3,4-dihydro-2H-quinolin-1-yl)pentan-1-yl]piperidin-4-yl}-1H-indole], the IC50 worked out at 12 nM.

As to `O=C1COc2ccccc2N1CCCCN1CCC(c2c[nH]c3ccc(F)cc23)CC1` [Compound 2g, 5-Fluoro-3-{1-[4-(3-oxo-3,4-dihydro-2H-1,4-benzoxazin-4-yl)butan-1-yl]piperidin-4-yl}-1H-indole], the IC50 came to 7.5 nM.

With `O=C1COc2ccccc2N1CCCCN1CCC(c2c[nH]c3ccc(Cl)cc23)CC1` [Compound 2h, 5-Chloro-3-{1-[4-(3-oxo-3,4-dihydro-2H-1,4-benzoxazin-4-yl)butan-1-yl]piperidin-4-yl}-1H-indole], the IC50 is 10 nM.

Regarding `O=C1CCc2ccccc2N1CCCN1CC=C(c2c[nH]c3ccc(F)cc23)CC1` [Compound 3a, 5-Fluoro-3-{1-[3-(2-oxo-3,4-dihydro-2H-quinolin-1-yl)propan-1-yl]-3,6-dihydro-2H-pyridin-4-yl}-1H-indole], the IC50 stood at 0.71 nM.

In the case of `O=C1CCc2ccccc2N1CCCCN1CC=C(c2c[nH]c3ccc(F)cc23)CC1` [Compound 3b, 5-Fluoro-3-{1-[4-(2-oxo-3,4-dihydro-2H-quinolin-1-yl)butan-1-yl]-3,6-dihydro-2H-pyridin-4-yl}-1H-indole], the IC50 was determined as 5 nM.

For `O=C1CCc2ccccc2N1CCCCCN1CC=C(c2c[nH]c3ccc(F)cc23)CC1` [Compound 3c, 5-Fluoro-3-{1-[5-(2-oxo-3,4-dihydro-2H-quinolin-1-yl)pentan-1-yl]-3,6-dihydro-2H-pyridin-4-yl}-1H-indole], the IC50 was 15 nM.

Take `O=C1CCc2ccccc2N1CCCCN1CCC(c2c[nH]c3ccc(F)cc23)CC1` [Compound 4, 5-Fluoro-3-{1-[4-(2-oxo-3,4-dihydro-2H-quinolin-1-yl)butan-1-yl]piperidin-4-yl}-1H-indole]: the half-inhibitory concentration (IC50) came out at 4.8 nM.

In the case of `Fc1ccc2[nH]cc(C3=CCN(CCCN4CCCc5ccccc54)CC3)c2c1` [Compound 9l, 5-Fluoro-3-{1-[3-(3,4-dihydro-2H-quinolin-1-yl)propan-1-yl]-3,6-dihydro-2H-pyridin-4-yl}-1H-indole], the IC50 came out at 0.51 nM.

Turning to `Fc1ccc2[nH]cc(C3=CCN(CCCCN4CCCc5ccccc54)CC3)c2c1` [Compound 9m, 5-Fluoro-3-{1-[4-(3,4-dihydro-2H-quinolin-1-yl)butan-1-yl]-3,6-dihydro-2H-pyridin-4-yl}-1H-indole], the IC50 amounted to 17 nM.

Consider `Fc1ccc2[nH]cc(C3=CCN(CCCCCN4CCCc5ccccc54)CC3)c2c1` [Compound 9n, 5-Fluoro-3-{1-[5-(3,4-dihydro-2H-quinolin-1-yl)pentan-1-yl]-3,6-dihydro-2H-pyridin-4-yl}-1H-indole], for which the concentration for half-maximal inhibition (IC50) turned out to be 53 nM.

Still in this series, the particulars now being: at 50 nM compound; [3H]YM-09151-2 0.06 nM, membranes of CHO cells.
With `O=C1c2ccccc2CCN1CCCN1CCC(c2c[nH]c3ccc(F)cc23)CC1` [Compound 1b], the “D4-bind. % inhibition of binding at 50 nM” value (“D4-bind. % inhibition” below) is 97%.

For the compound `O=C1c2ccccc2CCN1CCCCN1CCC(c2c[nH]c3ccc(F)cc23)CC1` [Compound 1c], the “D4-bind. % inhibition” value was found to be 95%.

With `O=C(CCCCN1CCC(c2c[nH]c3c(Cl)cccc23)CC1)N1CCc2ccccc2C1` [Compound 10l], the “D4-bind. % inhibition” value came out at 82%.

Staying with this series, now noted: at 50 nM compound; [3H]YM-09151-2 0.06 nM, membranes of CHO cells; read-out: D4-bind. % inhibition of binding at 50 nM.
As usually defined, the inhibition is the change of the read-out against control, counted positive when it falls. For `O=C1CCc2ccccc2N1CCN1CCC(c2c[nH]c3ccc(F)cc23)CC1` [Compound 1a, 5-Fluoro-3-{1-[2-(2-oxo-3,4-dihydro-2H-quinolin-1-yl)ethyl]piperidin-4-yl}-1H-indole], the inhibition at 0.05 µM is 92%.

Consider `O=C1CCc2ccccc2N1CCCCN1CCC(c2c[nH]c3c(Cl)cccc23)CC1` [Compound 2f, 7-Chloro-3-{1-[4-(2-oxo-3,4-dihydro-2H-quinolin-1-yl)butan-1-yl]piperidin-4-yl}-1H-indole], for which the inhibition at 0.05 µM was found to be 78%.

Turning to `O=C(CCN1CCC(c2c[nH]c3cccc(F)c23)CC1)N1CCc2ccccc2C1` [Compound 10a, 4-Fluoro-3-{1-[3-(3,4-dihydro-1H-isoquinolin-2-yl)-3-oxopropan-1-yl]piperidin-4-yl}-1H-indole], the inhibition at 0.05 µM turned out to be 93%.

In the case of `O=C(CCCN1CCC(c2c[nH]c3cccc(F)c23)CC1)N1CCc2ccccc2C1` [Compound 10b, 4-Fluoro-3-{1-[4-(3,4-dihydro-1H-isoquinolin-2-yl)-4-oxobutan-1-yl]piperidin-4-yl}-1H-indole], the inhibition at 0.05 µM worked out at 81%.

Regarding `O=C(CCCCCN1CCC(c2c[nH]c3cccc(F)c23)CC1)N1CCc2ccccc2C1` [Compound 10c, 4-Fluoro-3-{1-[6-(3,4-dihydro-1H-isoquinolin-2-yl)-6-oxohexan-1-yl]piperidin-4-yl}-1H-indole], the inhibition at 0.05 µM came out at 21%.

In the case of `O=C(CCCN1CCC(c2c[nH]c3cccc(Cl)c23)CC1)N1CCc2ccccc2C1` [Compound 10d, 4-Chloro-3-{1-[4-(3,4-dihydro-1H-isoquinolin-2-yl)-4-oxobutan-1-yl]piperidin-4-yl}-1H-indole], the inhibition at 0.05 µM was 86%.

Consider `O=C(CCCCN1CCC(c2c[nH]c3cccc(Cl)c23)CC1)N1CCc2ccccc2C1` [Compound 10e, 4-Chloro-3-{1-[5-(3,4-dihydro-1H-isoquinolin-2-yl)-5-oxopentan-1-yl]piperidin-4-yl}-1H-indole], for which the inhibition at 0.05 µM was 25%.

Take `O=C(CCCCCN1CCC(c2c[nH]c3cccc(Cl)c23)CC1)N1CCc2ccccc2C1` [Compound 10f, 4-Chloro-3-{1-[6-(3,4-dihydro-1H-isoquinolin-2-yl)-6-oxohexan-1-yl]piperidin-4-yl}-1H-indole]: the inhibition at 0.05 µM was 17%.

In the case of `O=C(CCCCN1CCC(c2c[nH]c3ccc(F)cc23)CC1)N1CCc2ccccc2C1` [Compound 10g, 5-Fluoro-3-{1-[5-(3,4-dihydro-1H-isoquinolin-2-yl)-5-oxopentan-1-yl]piperidin-4-yl}-1H-indole], the inhibition at 0.05 µM was determined as 65%.

As to `O=C(CCCCCN1CCC(c2c[nH]c3ccc(F)cc23)CC1)N1CCc2ccccc2C1` [Compound 10h, 5-Fluoro-3-{1-[6-(3,4-dihydro-1H-isoquinolin-2-yl)-6-oxohexan-1-yl]piperidin-4-yl}-1H-indole], the inhibition at 0.05 µM is 50%.

For the compound `O=C(CCN1CCC(c2c[nH]c3cc(Cl)ccc23)CC1)N1CCc2ccccc2C1` [Compound 10i, 6-Chloro-3-{1-[3-(3,4-dihydro-1H-isoquinolin-2-yl)-3-oxopropan-1-yl]piperidin-4-yl}-1H-indole], the inhibition at 0.05 µM amounted to 94%.

As to `O=C(CCCCCN1CCC(c2c[nH]c3cc(Cl)ccc23)CC1)N1CCc2ccccc2C1` [Compound 10j, 6-Chloro-3-{1-[6-(3,4-dihydro-1H-isoquinolin-2-yl)-6-oxohexan-1-yl]piperidin-4-yl}-1H-indole], the inhibition at 0.05 µM was found to be 70%.

As to `O=C(CCCN1CCC(c2c[nH]c3c(Cl)cccc23)CC1)N1CCc2ccccc2C1` [Compound 10k, 7-Chloro-3-{1-[4-(3,4-dihydro-1H-isoquinolin-2-yl)-4-oxobutan-1-yl]piperidin-4-yl}-1H-indole], the inhibition at 0.05 µM was found to be 95%.

For the compound `O=C(CCCCCN1CCC(c2c[nH]c3c(Cl)cccc23)CC1)N1CCc2ccccc2C1` [Compound 10m, 7-Chloro-3-{1-[6-(3,4-dihydro-1H-isoquinolin-2-yl)-6-oxohexan-1-yl]piperidin-4-yl}-1H-indole], the inhibition at 0.05 µM amounted to 69%.
